{
  "source": "PubChem BioAssay (NCI)",
  "assay_in_all_cases": "DTP human tumour cell line panel, 48 h",
  "key": {"LXFL 529 NSCLC": {"test_system": "LXFL 529 NSCLC"}, "SNB-78 CNS": {"test_system": "SNB-78 CNS"}, "DMS 114 small cell lung": {"test_system": "DMS 114 small cell lung"}, "RXF-631 renal": {"test_system": "RXF-631 renal"}, "HOP-18 NSCLC": {"test_system": "HOP-18 NSCLC"}, "XF 498 CNS": {"test_system": "XF 498 CNS"}},
  "note": "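How tested: cells in 96-well plates exposed to compound for 48 hours at five concentrations. TGI marks complete inhibition of growth.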",
  "data": [
    {"smiles": "CCOc1cc2c(cc1OC)c[n+](C)c1c3cc(OC)c(OC)cc3ccc21", "values": [
      {"measurement": "TGI", "setting": "LXFL 529 NSCLC", "result": "> 100", "unit": "µM"},
      {"measurement": "TGI", "setting": "SNB-78 CNS", "result": "> 89.9", "unit": "µM"},
      {"measurement": "TGI", "setting": "DMS 114 small cell lung", "result": 51.3, "unit": "µM"},
      {"measurement": "TGI", "setting": "RXF-631 renal", "result": 44.9, "unit": "µM"},
      {"measurement": "TGI", "setting": "HOP-18 NSCLC", "result": "> 80.1", "unit": "µM"}
    ]},
    {"smiles": "CCOC(=O)c1ccc(N2C(=O)/C(=C/c3ccc(N(CCC#N)CCC#N)cc3)N=C2c2cc([N+](=O)[O-])ccc2Cl)cc1", "values": [
      {"measurement": "TGI", "setting": "LXFL 529 NSCLC", "result": "> 100", "unit": "µM"},
      {"measurement": "TGI", "setting": "SNB-78 CNS", "result": "> 100", "unit": "µM"},
      {"measurement": "TGI", "setting": "DMS 114 small cell lung", "result": "> 100", "unit": "µM"},
      {"measurement": "TGI", "setting": "RXF-631 renal", "result": "> 100", "unit": "µM"},
      {"measurement": "TGI", "setting": "HOP-18 NSCLC", "result": "> 100", "unit": "µM"}
    ]},
    {"smiles": "Cc1ccccc1NC(=O)C(=O)C(C1OC(=O)c2ccccc21)[N+](=O)[O-]", "note": "(configuration not stated)", "values": [
      {"measurement": "TGI", "setting": "LXFL 529 NSCLC", "result": "> 100", "unit": "µM"},
      {"measurement": "TGI", "setting": "SNB-78 CNS", "result": "> 100", "unit": "µM"},
      {"measurement": "TGI", "setting": "DMS 114 small cell lung", "result": "> 100", "unit": "µM"},
      {"measurement": "TGI", "setting": "XF 498 CNS", "result": "> 100", "unit": "µM"}
    ]},
    {"smiles": "COC1CCC(O)C(CO)O1", "note": "(configuration not stated)", "values": [
      {"measurement": "TGI", "setting": "LXFL 529 NSCLC", "result": "> 100", "unit": "µM"},
      {"measurement": "TGI", "setting": "SNB-78 CNS", "result": "> 100", "unit": "µM"},
      {"measurement": "TGI", "setting": "XF 498 CNS", "result": "> 100", "unit": "µM"}
    ]}
  ]
}
